# Measurements reported in US11572371B2, “BRD4 inhibitor” (HINOVA PHARMACEUTICALS INC., priority 2017, dated 2023).
# Like-named read-outs stand apart in the source and are kept apart here.
# Test system: CWR22RV1 cells
# Assay: Inhibition of CWR22RV1 cell proliferation (CCK-8)
# Format: cell-based
# Conditions: Homo sapiens, CWR22Rv1, 144 h, read-out: IC50 on CWR22RV1
# Protocol: Test Example 2 Biological Determination of the Inhibitory Effect of the Compound on CWR22RV1 Cell Proliferation
# Experimental Materials: • CWR22RV1 cell line (Cell bank of Chinese Academy of Sciences, TCHu100) • FBS (Gibco, Cat. No. 10099-141) • 0.01M PBS (Biosharp, Cat. No. 162262) • RIPM1640 (Hyclone, Cat. No. 308090.01) • Penicillin-Streptomycin (Hyclone, Cat. No. SV30010) • Cell counting kit-8(Signalway Antibody, Cat. No. CP002) • DMSO (Sigma, Cat. No. D5879) • Centrifuge Tube, 15 ml (Excell Bio, Cat. No. CS015-0001) • Cell Culture Dish, (Excell Bio, Cat. No. CS016-0128) • 96-well cell culture cluster (Corning, Cat. No. 3599)
# (1) CWR22RV1 cells were subcultured with cell culture medium, and well-growth cells were inoculated in 96-well plates, with 80 μL per well. The number of cells in each well was 1500, and the plate was cultured overnight in a 37° C., 5% CO2 cell incubator.
# (2) The drug was prepared as a 30 mM stock solution using dimethyl sulfoxide (DMSO). before use, the stock solution was diluted 3 times with DMSO, and then diluted by a 3 times gradient to obtain 9 concentration gradients. The compound at each concentration was further diluted 200 times with the culture solution (to ensure that the DMSO concentration in the culture system was 0.1%), and each concentration was repeated 2 wells. 20 μL of the diluted compound was added to the cell culture wells (with final concentrations of 10 μM, 3.3 μM, 1.1 μM . . . ), and gently shaked to mix. In addition, three negative control wells containing only cells and three blank control wells containing only culture medium (6 wells each containing 20 μL DMSO 200-fold diluted with culture medium) were set.
# (1) After being cultured for 6 days, 10 μL CCK-8 was added to each well, and the cells were further cultured in a 5% CO2 cell incubator at 37° C. for 2.5 hours.
# (2) The absorbance (OD value) was measured at 450 nm with a multifunctional microplate reader.
# (3) The data were analyzed with the Dose-response-inhibition equation in the software GraphPad Prism6, and IC50 values were obtained.
SMILES,"IC50 (cultured for 6 days, CCK-8) [nM]",IC50 [nM]
"Cc1sc2c(c1C)C(c1ccc(Cl)cc1)=N[C@@H](Cc1nnc(CN3CC(C(=O)O)C3)o1)c1nnc(C)n1-2 [Compound 17, (5)-1-((5-((4-(4-chlorophenyl)-2,3,9-trimethyl-6H-thieno[3,2-f][1,2,4]triazolo[4,3-a][1,4]diaza-6-yl)methyl)-1,3,4-oxodiazole-2-yl)methyl)azacyclobutane-3-carboxylic acid]",2380,–
"Cc1sc2c(c1C)C(c1ccc(Cl)cc1)=N[C@@H](Cc1nnc(C(C)(C)C)o1)c1nnc(C)n1-2 [Compound 23, (S)-2-(t-butyl)-5-((4-(4-chlorophenyl)-2,3,9-trimethyl-6H-thieno[3,2-f][1,2,4]triazolo[4,3-a][1,4]diaza-6-yl)methyl) -1,3,4-oxodiazole]",–,179
"Cc1sc2c(c1C)C(c1ccc(Cl)cc1)=N[C@@H](Cc1nncn1C(C)C)c1nnc(C)n1-2 [Compound 25, (S)-4-(4-chlorophenyl)-6-((4-isopropyl-4H-1,2,4--3-yl)methyl)-2,3,9-trimethyl-6H-thieno[3,2-f][1,2,4]triazolo[4,3-a][1,4]diazepine]",–,1310
"Cc1sc2c(c1C)C(c1ccc(Cl)cc1)=N[C@@H](Cc1nc(CCl)co1)c1nnc(C)n1-2 [Compound 27, 2-(4-(4-chlorophenyl)-2,3,9-trimethyl-6H-thieno[3,2-f][1,2,4]triazolo[4,3-a][1,4]diaza-6-yl)-4-chloromethyloxazole]",–,29
"COCc1nnc(C[C@@H]2N=C(c3ccc(Cl)cc3)c3c(sc(C)c3C)-n3c(C)nnc32)o1 [Compound 5, (S)-2-((4-(4-chlorophenyl)-2,3,9-trimethyl-6H-thieno[3,2-f][1,2,4]triazolo[4,3-a][1,4]diaza-6-yl)methyl)-5-(methoxylmethyl)-1,3,4-oxodiazole]",45,–
"Cc1sc2c(c1C)C(c1ccc(Cl)cc1)=N[C@@H](Cc1nnc(CO)o1)c1nnc(C)n1-2 [Compound 7, (S)-(5-((4-(4-chlorophenyl)-2,3,9-trimethyl-6H-thieno[3,2-f][1,2,4]triazolo[4,3-a][1,4]diaza-6-yl)methyl)-1,3,4-oxodiazole-2-yl)methanol]",–,89
"CC(=O)NCc1nnc(C[C@@H]2N=C(c3ccc(Cl)cc3)c3c(sc(C)c3C)-n3c(C)nnc32)o1 [Compound 9, (S)-N-((5-((4-(4-chlorophenyl)-2,3,9-trimethyl-6H-thieno[3,2-f][1,2,4]triazolo[4,3-a][1,4]diaza-6-yl)methyl)-1,3,4-oxodiazole-2-yl)methyl)acetylamine]",110,–
"Cc1sc2c(c1C)C(c1ccc(Cl)cc1)=N[C@@H](Cc1nnc(CN3CCS(=O)(=O)CC3)o1)c1nnc(C)n1-2 [Compound 12, (S)-4-((5-((4-(4-chlorophenyl)-2,3,9-trimethyl-6H-thieno[3,2-f] [1,2,4]triazolo[4,3-a][1,4]diaza-6-yl)methyl)-1,3,4-oxodiazole-2-yl)methyl)thiomorpholine 1,1-dioxide]",110,–
"Cc1sc2c(c1C)C(c1ccc(Cl)cc1)=N[C@@H](Cc1nnc(CN3CC(O)C3)o1)c1nnc(C)n1-2 [Compound 18, (5)-1-((5-((4-(4-chlorophenyl)-2,3,9-trimethyl-6H-thieno[3,2-f][1,2,4]triazolo[4,3-a][1,4]diaza-6-yl)methyl)-1,3,4-oxodiazole-2-yl)methyl)azacyclobutane-3-ol]",89,–
"Cc1sc2c(c1C)C(c1ccc(Cl)cc1)=N[C@@H](Cc1nnc(CN3CCC(C(=O)O)CC3)o1)c1nnc(C)n1-2 [Compound 16, (5)-1-((5-((4-(4-chlorophenyl)-2,3,9-trimethyl-6H-thieno[3,2-f][1,2,4]triazolo[4,3-a][1,4]diaza-6-yl)methyl)-1,3,4-oxodiazole-2-yl)methyl)piperidin-4-carboxylic acid]",2650,–
"Cc1nnc(C[C@@H]2N=C(c3ccc(Cl)cc3)c3c(sc(C)c3C)-n3c(C)nnc32)o1 [Compound 21, (S)-2-((4-(4-chlorophenyl)-2,3 ,9-trimethyl-6H-thieno[3,2-f][1,2,4]triazolo[4,3-a][1,4]diaza-6-yl)methyl)-5-methyl-1,3,4-oxodiazole]",–,33
"Cc1sc2c(c1C)C(c1ccc(Cl)cc1)=N[C@@H](Cc1nnc(CNCCO)o1)c1nnc(C)n1-2 [Compound 14, (S)-2-(((5-((4-(4-chlorophenyl)-2,3,9-trimethyl-6H-thieno[3,2-f][1,2,4]triazolo[4,3-a][1,4]diaza-6-yl)methyl)-1,3,4-oxodiazole-2-yl)methyl)amino)ethanol]",163,–
"Cc1sc2c(c1C)C(c1ccc(Cl)cc1)=N[C@@H](Cc1nnc(CCl)o1)c1nnc(C)n1-2 [Compound 4, (S)-2-chloromethyl-5-((4-(4-chlorophenyl)-2,3,9-trimethyl-6H-thieno[3,2-f][1,2,4]triazolo[4,3-a][1,4]diaza-6-yl)methyl)-1,3,4-oxodiazole]",28,–
"Cc1sc2c(c1C)C(c1ccc(Cl)cc1)=N[C@@H](Cc1nnc(CNS(C)(=O)=O)o1)c1nnc(C)n1-2 [Compound 10, (S)-N-((5-((4-(4-chlorophenyl)-2,3,9-trimethyl-6H-thieno[3,2-f][1,2,4]triazolo[4,3-a][1,4]diaza-6-yl)methyl) -1,3,4-oxodiazole-2-yl)methyl) methanesulfonamide]",63,–
"C=CC(=O)NCc1nnc(C[C@@H]2N=C(c3ccc(Cl)cc3)c3c(sc(C)c3C)-n3c(C)nnc32)o1 [Compound 11, (S)-N-((5-((4-(4-chlorophenyl)-2,3,9-trimethyl-6H-thieno[3,2-f][1,2,4]triazolo[4,3-a][1,4]diaza-6-yl)methyl)-1,3,4-oxodiazole-2-yl)methyl)acrylamide]",54,–
"Cc1noc(C[C@@H]2N=C(c3ccc(Cl)cc3)c3c(sc(C)c3C)-n3c(C)nnc32)n1 [Compound 30, (S)-5-((4-(4-chlorophenyl)-2,3,9-trimethyl-6H-thieno[3,2-f][1,2,4]triazolo[4,3-a][1,4]diaza-6-yl)methyl)-3-methyl-1,2,4-oxodiazole]",47,–
"COC(=O)C1CCN(Cc2nnc(C[C@@H]3N=C(c4ccc(Cl)cc4)c4c(sc(C)c4C)-n4c(C)nnc43)o2)CC1 [Compound 15, (S)-methyl-1-((5-((4-(4-chlorophenyl)-2,3,9-trimethyl-6H-thieno[3,2-f][1,2,4]triazolo[4,3-a][1,4]diaza-6-yl)methyl) -1,3,4-oxodiazole-2-yl)methyl)piperidin-4-carboxylic ester]",59,–
